Read-outs that look alike come from different tables or passages of the source. Where a SMILES comes first, the peptide text is derived from it.
Legend:
DPP-IV [1] = target: T1, DPP-IV (Homo sapiens, UniProt P27487); details: cited from earlier work
T1 construct: purchased Abnova KA1311
Excerpt: Diabetes is a chronic disease marked by high blood sugar levels and disruptions in fat and protein metabolism due to insulin resistance and deficiency. It is categorized into three types: type 1, type 2, and gestational diabetes. As reported by the International Diabetes Federation (IDF), approximately 537 million adults (aged 20–79 years) were living with diabetes in 2021, a number expected to rise to 700 million by 2045 [7]. Type 2 diabetes mellitus (T2DM) constitutes about 90% of these cases. Without treatment, T2DM can lead to severe complications such as coronary issues, retinopat ... || The results of mass spectrometry identification guided the screening of peptide sequences based on certain criteria. […] In the current landscape of research aiming to identify DPP-IV inhi ...

DPP-IV [2] = target: T1, DPP-IV; test: DPP-IV inhibitor screening assay (KA1311 kit, Gly-Pro-AMC); type: biochemical; details: synthetic peptides; 37 °C, 30 min; Gly-Pro-AMC substrate; fluorescence ex 350 nm / em 460 nm; mean ± standard deviation (n = 3); read-out: IC50 (DPP-IV inhibition)
Procedure: The DPP-IV inhibition rate and the corresponding IC50 of each component were determined using the DPP-IV inhibitor screening assay kit (KA1311, Abnova, Taipei, Taiwan, China). For each component, extracts were mixed with buffer solution at various concentrations (1 mg/mL, 0.1 mg/mL, 0.05 mg/mL, 0.01 mg/mL), DPP-IV, and the substrate (Gly-Pro-AMC solution) in 96-well plates. The reaction was conducted at the normal human body temperature of 37 °C for 30 min. Free AMC (7-amino-4-methylcoumarin) was quantified using a multifunctional fluorescent zymography assay, with excitation light at 350 nm and emission light at 460 nm, and expressed as fluorescence intensity. The positive control utilized was 1 μg/mL of […]. A standard curve for all inhibition rates was plotted, and the maximum half inhibitory concentration (IC50) value of each peptide was determined using GraphPad Prism 9.5.1. DPP-IV inhibition (%) = {(F initial activity − F sample)/F initial activity} × 100%(2)
The DPP-IV inhibitory activity assay was performed in three parallel groups, and IC50 data were expressed as the mean ± standard deviation (S.D.). Data were analyzed using SPSS 20.0 software (SPSS Inc., Chicago, IL, USA) for unifactorial and bifactorial analyses, and the significance of the data was indicated by p < 0.05.

[3] = side effects such as nausea; cited from earlier work
Excerpt: Diabetes is a chronic disease marked by high blood sugar levels and disruptions in fat and protein metabolism due to insulin resistance and deficiency. It is categorized into three types: type 1, type 2, and gestational diabetes. As reported by the International Diabetes Federation (IDF), approximately 537 million adults (aged 20–79 years) were living with diabetes in 2021, a number expected to rise to 700 million by 2045 [7]. Type 2 diabetes mellitus (T2DM) constitutes about 90% of these cases. Without treatment, T2DM can lead to severe complications such as coronary issues, retinopat ...

DPP-IV [4] = target: T1, DPP-IV; test: DPP-IV inhibition pattern (Lineweaver–Burk plots); type: biochemical; details: substrate 20, 15, 10, 5, 1 μM, peptide greater than IC50, less than IC50, and 0
Procedure: The pattern of DPP4 inhibition of synthetic peptides was further analyzed using Lineweaver–Burk plots. Images were plotted at different concentrations of substrates (20, 15, 10, 5, 1 μM) and peptide solution (concentration was greater than IC50, less than IC50, and 0) with 1/[S] as the X-value and 1/V as the Y-value. The mode of inhibition of DPP-IV by the synthetic peptide was determined based on the intercept of the Lineweaver–Burk curve.

T1 sequence (P27487 whole entry): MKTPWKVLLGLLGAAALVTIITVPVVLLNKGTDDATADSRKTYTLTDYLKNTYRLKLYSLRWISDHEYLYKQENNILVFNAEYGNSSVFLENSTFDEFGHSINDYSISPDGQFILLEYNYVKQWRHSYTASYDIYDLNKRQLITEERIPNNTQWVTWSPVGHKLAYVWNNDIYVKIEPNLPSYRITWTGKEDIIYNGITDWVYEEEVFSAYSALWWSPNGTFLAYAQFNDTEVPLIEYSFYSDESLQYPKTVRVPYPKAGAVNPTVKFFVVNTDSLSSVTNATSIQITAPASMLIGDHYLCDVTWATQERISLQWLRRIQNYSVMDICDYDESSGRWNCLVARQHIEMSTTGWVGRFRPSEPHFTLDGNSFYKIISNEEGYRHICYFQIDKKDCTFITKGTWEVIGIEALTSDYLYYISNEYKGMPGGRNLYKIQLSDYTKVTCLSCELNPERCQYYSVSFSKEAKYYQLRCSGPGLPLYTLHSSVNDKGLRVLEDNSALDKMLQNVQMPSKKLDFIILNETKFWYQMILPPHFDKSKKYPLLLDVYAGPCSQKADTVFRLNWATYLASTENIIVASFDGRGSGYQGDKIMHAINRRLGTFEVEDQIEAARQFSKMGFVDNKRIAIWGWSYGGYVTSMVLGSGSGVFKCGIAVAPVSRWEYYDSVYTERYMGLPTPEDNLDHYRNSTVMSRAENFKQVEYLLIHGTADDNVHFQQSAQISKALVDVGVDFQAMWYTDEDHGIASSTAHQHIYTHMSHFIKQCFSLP

IPSK
DPP-IV inhibitory effect (DPP-IV [1]; peptides from milk proteins): DPP-IV inhibitory effects

WGDEHIPGSPYH [previously reported peptide from silver carp]
IC50 (DPP-IV [1]; from silver carp): 350 µM

O=C(CNC(=O)[C@@H]1CCCN1C(=O)[C@@H]1CCCN1)N[C@@H](Cc1ccccc1)C(=O)O [PPGF] (H-PPGF-OH)
IC50 (DPP-IV [2]): 0.00463 ± 0.00156 µM

GPAG [peptide (300.4 Da) from pig skin gelatin hydrolysate]
IC50 (DPP-IV [1]; peptides from pig skin gelatin hydrolysate): 41.9 µM

CN(C)C(=N)N=C(N)N [Metformin]
patients suffering from side effects [3]: around 30%

CC(C)C[C@H](NC(=O)CNC(=O)[C@@H]1CCCN1)C(=O)N[C@H](C(=O)NCC(=O)O)C(C)C [PGLVG] (H-PGLVG-OH)
effect on Km (DPP-IV [4]): Km is increased
IC50 (DPP-IV [2]): 0.11 ± 0.0431 µM

CC(C)[C@H](N)C(=O)N[C@@H](Cc1ccc(O)cc1)C(=O)N1CCC[C@H]1C(=O)O [VYP] (H-Val-Tyr-Pro-OH)
IC50 (DPP-IV [2]): 0.399 ± 0.0474 µM

CC(C)[C@H](NC(=O)[C@@H](N)Cc1ccccc1)C(=O)N[C@@H](C)C(=O)O [FVA] (H-Phe-Val-Ala-OH)
effect on Km (DPP-IV [4]): increased Km
IC50 (DPP-IV [2]): 0.402 ± 0.00528 µM

YYGYTGAFR [previously reported peptide from Atlantic salmon]
IC50 (DPP-IV [1]; from Atlantic salmon): 1100 µM

YPFPGP [previously reported peptide extracted from milk]
IC50 (DPP-IV [1]; extracted from milk): 749 µM
